Patent US12077503B2, “Substituted cyclic amides and their use as herbicides” (FMC CORPORATION, priority 2015, dated 2024)

What was measured:
Assay type in all cases: in vivo
[1] = tested on: ryegrass, Italian (Italian ryegrass, Lolium multiflorum); test: Test A preemergence
Summary of the method: (§1)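 Greenhouse, ~10 d after spray; visual injury vs untreated controls, 0 = no effect, 100 = complete control. Preemergence: directed soil spray over planted seeds. Postemergence: plants 2–10 cm, 1–2 leaf stage. Loam/sand blend. Compound in non-phytotoxic solvent with surfactant.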

[2] = tested on: ragweed (common ragweed, Ambrosia elatior); test: Test A preemergence
Summary of the method: as §1

[3] = tested on: giant foxtail (Setaria faberii); test: Test A preemergence
Summary of the method: as §1

[4] = tested on: barnyardgrass (Echinochloa crus-galli); test: Test A preemergence
Summary of the method: as §1

[5] = tested on: pigweed (Amaranthus retroflexus); test: Test A preemergence
Kochia (Kochia scoparia) [6] = test: Test A preemergence
Summary of the method: as §1

[7] = tested on: ducksalad (Heteranthera limosa); test: Test B flooded paddy test; conditions: Flood, 250 g ai/ha; 0 to 100 scale where 0 is no effect and 100 is complete control; 13 to 15 d
Summary of the method: (§2)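 Plants at 2-leaf stage flooded to 3 cm above soil, with compounds applied directly to paddy water and that depth maintained. Plants kept in greenhouse 13–15 d. Visual rating versus controls on a 0 (no effect) to 100 (complete control) scale.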

[8] = tested on: sedge, umbrella (small-flower umbrella sedge, Cyperus difformis); test: Test B flooded paddy test; conditions: Flood, 250 g ai/ha; 0 to 100 scale where 0 is no effect and 100 is complete control; 13 to 15 d
Summary of the method: as §2

[9] = tested on: barnyardgrass (Echinochloa crus-galli); test: Test B flooded paddy test; conditions: Flood, 250 g ai/ha; 0 to 100 scale where 0 is no effect and 100 is complete control; 13 to 15 d
Summary of the method: as §2

rice (Oryra sativa) = test: Test B flooded paddy test; conditions: Flood, 250 g ai/ha; 0 to 100 scale where 0 is no effect and 100 is complete control; 13 to 15 d
Summary of the method: as §2

[10] = tested on: ryegrass, Italian (Italian ryegrass, Lolium multiflorum); test: Test A postemergence; conditions: postemergence, 0 to 100 scale (0 no effect, 100 complete control)
Summary of the method: as §1

[11] = tested on: ragweed (common ragweed, Ambrosia elatior); test: Test A postemergence; conditions: postemergence, 0 to 100 scale (0 no effect, 100 complete control)
Summary of the method: as §1

[12] = tested on: giant foxtail (Setaria faberii); test: Test A postemergence; conditions: postemergence, 0 to 100 scale (0 no effect, 100 complete control)
Summary of the method: as §1

corn (Zea mays) = test: Test A postemergence
Summary of the method: as §1

[13] = tested on: blackgrass (Alopecurus myosuroides); test: Test A postemergence
Summary of the method: as §1

[14] = tested on: barnyardgrass (Echinochloa crus-galli); test: Test A postemergence
Summary of the method: as §1

[15] = tested on: pigweed (Amaranthus retroflexus); test: Test A postemergence; conditions: postemergence, 0 to 100 scale (0 no effect, 100 complete control)
Summary of the method: as §1

Kochia (Kochia scoparia) [16] = test: Test A postemergence; conditions: postemergence, 0 to 100 scale (0 no effect, 100 complete control)
Summary of the method: as §1

[17] = tested on: wheat (Triticum aestivum); test: Test A postemergence; conditions: postemergence, 0 to 100 scale (0 no effect, 100 complete control)
Summary of the method: as §1

[18] = tested on: Galium (catchweed bedstraw, Galium aparine); test: Test A postemergence; conditions: postemergence, 0 to 100 scale (0 no effect, 100 complete control)
Summary of the method: as §1

[19] = tested on: blackgrass (Alopecurus myosuroides); test: Test C preemergence; conditions: for Plant response rating, Blackgrass: scale 0 to 100, 0 no effect, 100 complete control
Summary of the method: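 Seeds in loam-sand soil treated preemergence, or plants in peat-based medium sprayed postemergence at 2–18 cm (1- to 4-leaf stage), with compound in a non-phytotoxic solvent mixture containing surfactant. Greenhouse-held 13–15 d, then visually rated against controls on a 0–100 scale (0 = no effect, 100 = complete control); dash = not tested.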

[20] = 125 g ai/ha, Preemergence, visual injury after approximately 10 d, 0 to 100 scale where 0 is no effect and 100 is complete control
[21] = 500 g ai/ha, preemergence, 0 to 100 scale, 0 = no effect, 100 = complete control
[22] = 125 g ai/ha, visual rating after approx. 10 d
[23] = 500 g ai/ha, visual injury, approx. 10 d
[24] = 125 g ai/ha, postemergence, visual rating after approx. 10 d, 0 to 100 scale (0 no effect, 100 complete control)
[25] = Postemergence, 500 g ai/ha, 0 to 100 scale where 0 is no effect and 100 is complete control

SMILES: CN1CC(c2cccc(C(F)(F)F)c2)C(C(=O)Nc2cccc(F)c2F)C1=O (stereo not shown) [Compound 636]
- Plant response rating, Ryegrass, Italian [1, 20]: 90
- Plant response rating, Ryegrass, Italian [1, 21]: 90
- Plant response rating, Ragweed [2, 20]: 20
- Plant response rating, Ragweed [2, 21]: 70
- Plant response rating, Foxtail, Giant [3, 20]: 90
- Plant response rating, Foxtail, Giant [3, 21]: 90
- Plant response rating, Barnyardgrass [4, 20]: 90
- Plant response rating, Barnyardgrass [4, 21]: 90
- Plant response rating, Pigweed [5, 20]: 40
- Plant response rating, Pigweed [5, 21]: 80
- Plant response rating, Kochia (Kochia (Kochia scoparia) [6]; [20]): 50
- Plant response rating, Kochia (Kochia (Kochia scoparia) [6]; [21]): 70
- Plant response rating, Ducksalad [7]: 100
- Plant response rating, Sedge, Umbrella [8]: 0
- Plant response rating, Barnyardgrass [9]: 70
- Plant response rating, Rice (rice (Oryra sativa)): 0
- Plant response rating, Ryegrass, Italian [10, 22]: 50
- Plant response rating, Ryegrass, Italian [10, 23]: 70
- Plant response rating, Ragweed [11, 22]: 0
- Plant response rating, Ragweed [11, 23]: 30
- Plant response rating, Foxtail, Giant [12, 22]: 90
- Plant response rating, Foxtail, Giant [12, 23]: 90
- Plant response rating, Corn (corn (Zea mays); [24]): 70
- Plant response rating, Corn (corn (Zea mays); [25]): 80
- Plant response rating, Blackgrass [13, 24]: 60
- Plant response rating, Blackgrass [13, 25]: 60
- Plant response rating, Barnyardgrass [14, 24]: 90
- Plant response rating, Barnyardgrass [14, 25]: 90
- Plant response rating, Pigweed [15, 22]: 30
- Plant response rating, Pigweed [15, 23]: 50
- Plant response rating, Kochia (Kochia (Kochia scoparia) [16]; [22]): 50
- Plant response rating, Kochia (Kochia (Kochia scoparia) [16]; [23]): 60
- Plant response rating, Wheat [17, 22]: 60
- Plant response rating, Wheat [17, 23]: 60
- Plant response rating, Galium [18, 22]: 50
- Plant response rating, Galium [18, 23]: 50
- Plant response rating (scale of 0 to 100), Blackgrass ([19]; 31 g ai/ha, 0 is no effect, 100 is complete control): 90
- Plant response rating, Blackgrass ([19]; 62 g ai/ha): 85
- Plant response rating, Blackgrass ([19]; 125 g ai/ha): 90
- Plant response rating, Blackgrass ([19]; 250 g ai/ha): 90
